# Patent publication US11661404B2, “Prodrug compounds activated by AKR1C3 and their use for treating hyperproliferative disorders” (priority 2018, dated 2023)
# Like-named read-outs stand apart in the source and are kept apart here.
# What was measured:
# [1] = system: wild-type SNU398 hepatocellular carcinoma cells; test: Anti-proliferative IC50 assay, wild-type SNU398; type: cell-based; details: Homo sapiens
# Description: (§1) Four hundred cells were seeded in a volume of 100 μL in each well of a 96-well plate. The cells were left in a humidified incubator (37° C., 5% CO2) for 2 hours in order to enable attachment to the surface of the wells prior to compound addition. All compounds were prepared as stocks in DMSO and stored at −80° C. Frozen stocks of compounds were thawed immediately prior to addition to cells. Working solutions of each compound were made in α-MEM+5% FBS (v/v) at 3 times the required final concentration for the top well. The final concentration of DMSO in the α-MEM solution was ensured to not exceed 1% of the total volume. 50 μL of the working solution was added to the top wells (in duplicates) and gently mixed. The solubility of some compounds precluded the working solution in α-MEM to be 3 times the desired top well concentration. […] A 3-fold serial dilution was carried out along the plate starting from the top well. The first column of wells on the plate served as blanks (containing α-MEM+FBS) and the second column served as control wells (containing cells with no compound added). Following compound addition, the plates were incubated for 4 hours in a humidified incubator (37° C., 5% CO2).
# (§2) Following the 4 hour compound exposure, the 96-well plates were washed three times by aspirating media with an Immuno Washer (Nunc) and each well replaced with 150 μL of α-MEM+5% (v/v) FBS+1% (v/v) P/S. The plates were left in a humidified incubator (37° C., 5% CO2) for 5 days to enable cell growth. The cells in 96-well plates were fixed 5 days after compound exposure by adding 50 μL of a 40% (w/v) trichloroacetic acid (TCA) solution so as to obtain a final TCA concentration of 10% in each well. The plates were left in the refrigerator (4° C.) for 1 hour and subsequently rinsed 3 times in tap water. Any excess water was left to drain and the cells were stained with 50 μL of 0.4% (w/v) sulforhodamine B (SRB). The plates with the SRB stain were left in the dark for 30 minutes. Excess stain was removed from the wells by rinsing the plates 4 times in water containing 1% (v/v) acetic acid. The stain was solubilised by adding 100 μL of 10 mM unbuffered Tris (pH 10.5) to each well and the plates were left in a shaker in a dark environment at room temperature for at least 1 hour. The absorbance values of the wells were determined by an ELx 808 Absorbance Microplate Reader (Bio-Tek Instruments, Winooski, Vt., USA), with the wavelength of the measurement filter set at 490 nm and a reference filter set at 450 nm. The absorbance of the reference filter was subtracted from the measurement filter to obtain a final absorbance of λ490-450 nm. The absorbance data was analysed and IC50 values determined by the KC4 microplate data analysis software (KC4™ V3.4, Bio-Tek).
# (§3) Anti-proliferative IC50 assays were repeated as described above including the addition of 3 μM SN34037, a selective and potent small molecule inhibitor of AKR1C3.
# (§4) Materials and methods used are as described for Example 9. […] This is a surprising finding and considerably greater than the approximately 77-fold, 270-fold and 400-fold increase in sensitivity observed for PR-104A, SN33540 and SN34454, respectively. In all cases, this increase in cytotoxicity resulting from expression of AKR1C3 can be substantially reversed by addition of an AKR1C3 inhibitor (SN34037), directly implicating metabolism of the prodrugs by AKR1C3 in the observed increase in cytotoxicity. As an important control, introduction of SN34037 had no anti-proliferative effects in wild-type SNU398 cells treated with compounds of the invention.
# [2] = system: wild-type HCT116 colon cancer cells; test: Anti-proliferative IC50 assay (SRB), wild-type HCT116; type: cell-based, human
# From the text: The cellular cytotoxicity of compounds of the invention resulting from AKR1C3-dependent metabolism of the compounds can readily be observed in anti-proliferative IC50 testing in isogenic cell lines that have been engineered to over-express human AKR1C3, relative to their wild-type counterparts that have been selected for their comparatively low levels of endogenous AKR1C3 expression (by Western blot analysis). The direct role of AKR1C3 in metabolism and cytotoxicity of the compounds is further supported for selected examples by repeat anti-proliferative experiments in the presence of a potent and selective small molecule inhibitor of AKR1C3, SN34037 (Flanagan et al., Bioorganic & Medicinal Chemistry (2014), 22(3), 967-977).
# as §1, §2, §3
# [3] = system: SNU398 hepatocellular carcinoma cells engineered to over-express AKR1C3; test: Anti-proliferative IC50 assay, SNU398 over-expressing AKR1C3; type: cell-based, human; details: for IC50: Homo sapiens
# Description: as §1, §2, §3, §4
# [4] = system: wild-type HCT116 colon cancer cells; test: Anti-proliferative IC50 under oxic and anoxic conditions; type: cell-based, human; details: for IC50: Homo sapiens, HCT-116; for Hypoxic Cytotoxicity Ratio (HCR): oxic vs anoxic IC50, HCT116-WT
# From the text: PR-104A was initially designed and optimised as a hypoxia-selective cytotoxin (Patterson et al, Clinical Cancer Research, 2007, 13, 3922-3932). In the context of an AKR1C3-activated prodrug, this route of activation is considered off-mechanism and may potentially be undesirable, leading to off-target toxicities in a subject. Preferred compounds of the invention have been determined to be substantially resistant to hypoxia-dependent activation and cytotoxicity in wild-type HCT116 colon cancer cells. HCT116 cells were treated with compounds of the invention under either oxic or anoxic conditions and then their degree of anti-proliferative activity determined.
# Selected compounds were evaluated for cytotoxic potential (IC50) under anoxic conditions. The same procedures as described above for Examples 9-11 were carried out in a Bactron anoxic chamber (Sheldon Manufacturing Inc) with internal 37° C. incubators where palladium catalyst scrubbed gas (90% N2, 5% H2, 5% CO2) ensured severe anoxia (<0.001% O2) in the whole chamber. All materials required (including cells) were taken into the chamber through two cycles of vacuum and gassing with 100% N2, followed by a single cycle with 5% CO2 and 5% hydrogen in nitrogen. All experimental materials were placed in the anoxic chamber at least 3 days prior to the day required for the experiment in order to remove any traces of residual O2. The medium used for the 96-well plates in the anoxic chamber consisted of α-MEM+10% (v/v) FBS+1% (v/v) additives (1 M β-D-Glucose and 20 mM 2′-Deoxycytidine).
# [5] = system: wild-type PLC/PRF/5 hepatocellular carcinoma cells; test: Anti-proliferative IC50 assay, wild-type PLC/PRF/5; type: cell-based, human; details: for IC50: Homo sapiens, PLC-PRF-5
# Description: as §1, §2, §3
# Materials and methods used are as described for Example 9.
# [6] = SNU-398, read-out: SNU398-WT +AKR1C3 Inhibitor Anti-proliferative IC50
# [7] = SNU-398, read-out: SNU398-WT Anti-proliferative IC50
# [8] = Homo sapiens, HCT-116, read-out: HCT116-WT IC50
# [9] = read-out: HCT116-WT + AKR1C3 Inhibitor IC50, with 3 μM SN34037
# [10] = SNU-398, read-out: SNU398-AKR1C3 +AKR1C3 Inhibitor Anti-proliferative IC50
# [11] = SNU-398, read-out: SNU398-AKR1C3 Anti-proliferative IC50
# [12] = anoxic (<0.001% O2), read-out: HCT116-WT Anti-proliferative IC50 Anoxic
# [13] = read-out: HCT116-WT Anti-proliferative IC50 Oxic
# [14] = read-out: PLC/PRF/5-WT Anti-proliferative IC50
# [15] = with 3 μM SN34037, read-out: PLC/PRF/5-WT +AKR1C3 Inhibitor Anti-proliferative IC50
Structure (SMILES),"IC50 [1, 6] [µM]","IC50 [1, 7] [µM]","IC50 [2, 8] [µM]","IC50 [2, 9] [µM]","IC50 [3, 10] [µM]","IC50 [3, 11] [µM]","IC50 [4, 12] [µM]","IC50 [4, 13] [µM]",more cytotoxic in PLC/PRF/5 cells than SN34454 [5] [fold],"IC50 [5, 14] [µM]","IC50 [5, 15] [µM]",Hypoxic Cytotoxicity Ratio (HCR) [4],increase in sensitivity when SNU398 cells express AKR1C3 ([3]; SNU398-WT vs SNU398-AKR1C3) [fold]
"O=[N+]([O-])c1ccc(N(CCBr)CCBr)c(S(=O)(=O)N2CCN(CC(O)CO)CC2)c1 (centres unmarked) [Compound 566, 3-(4-((2-(bis(2-bromoethyl)amino)-5-nitrophenyl)sulfonyl)piperazin-1-yl)propane-1,2-diol]",10.2,9.64,3.34,3.93,6.41,0.011,–,–,–,–,–,–,–
"CN1CCN(S(=O)(=O)c2cc([N+](=O)[O-])ccc2N(CCBr)CCOS(C)(=O)=O)CC1 [Compound 602, 2-((2-bromoethyl)(2-((4-methylpiperazin-1-yl)sulfonyl)-4-nitrophenyl)amino)ethyl methanesulfonate]",6.65,6.74,4.26,4.33,2.66,0.003,3.51,4.26,94,1.19,23.7,–,–
"CS(=O)(=O)OCCN(CCBr)c1ccc([N+](=O)[O-])cc1S(=O)(=O)N1CCN(CC(O)CO)CC1 (centres unmarked) [Compound 605, 2-((2-bromoethyl)(2-((4-(2,3-dihydroxypropyl)piperazin-1-yl)sulfonyl)-4-nitrophenyl)amino)ethyl methanesulfonate]",14.4,16.2,6.18,6.9,10.5,0.028,–,–,–,–,–,–,–
"CN1CCN(S(=O)(=O)c2cc([N+](=O)[O-])ccc2N(CCOS(C)(=O)=O)CCOS(C)(=O)=O)CC1 [Compound 641, ((2-((4-methylpiperazin-1-yl)sulfonyl)-4-nitrophenyl)azanediyl)bis(ethane-2,1-diyl) dimethanesulfonate]",15.4,10.3,5.91,6.4,5.07,0.004,2.52,5.91,–,1.42,40.5,2,–
"CS(=O)(=O)OCCN(CCBr)c1c(C(=O)NCCO)cc([N+](=O)[O-])cc1[N+](=O)[O-] [PR-104A, 2-((2-bromoethyl)(2-((2-hydroxyethyl)-carbamoyl)-4,6-dinitrophenyl)amino)ethyl methanesulfonate, reference compound]",92.4,89.8,55.8,70.7,89.9,1.16,2.83,55.8,–,108,181,20,–
"CN1CCN(C(=O)c2cc([N+](=O)[O-])ccc2N(CCBr)CCBr)CC1 [SN34118, reference compound]",–,–,38.2,29.3,–,–,–,–,–,115,174,–,–
"CN1CCN(C(=O)c2cc([N+](=O)[O-])ccc2N(CCBr)CCOS(C)(=O)=O)CC1 [SN34454, reference compound]",48.9,60.5,–,–,62.7,0.15,–,–,–,111,131,–,~400
